Results as given in US20070203073A1 (priority 2005, published 2007).
“Also recorded” adds a separate entry of the source. Where a SMILES comes first, the peptide text is derived from it. [ ]: non-standard residue; d: D form. The star is where a group is joined. Sta = CC(C)C[C@H](N)[C@@H](O)CC(=O)O; Isovaleryl = CC(C)CC(=O)*; Cbz = O=C(OCc1ccccc1)*; CH2F = FC*

Assays:
SARS-CoV S protein [1] = experiment: microbe, parasite or virus in culture; assay type: cell-based
VSV-G = assay type: cell-based
MLV-Amphotropic Env = assay type: cell-based
human cathepsin L = human cathepsin L (Homo sapiens, UniProt P07711); assay type: biochemical
EboV GP glycoprotein = assay type: cell-based
thrombin = conditions: read-out: Ki, inhibition of thrombin; cited from earlier work
caspase 6 [2] = target: T1, caspase 6 (Homo sapiens, UniProt P55212); experiment: biochemical
T1 sequence (P55212 24-179 limits assumed): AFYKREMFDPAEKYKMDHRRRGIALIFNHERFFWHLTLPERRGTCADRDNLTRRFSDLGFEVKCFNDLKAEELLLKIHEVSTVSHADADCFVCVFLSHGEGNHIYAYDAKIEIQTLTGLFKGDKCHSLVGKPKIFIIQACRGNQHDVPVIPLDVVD
T1 sequence (P55212 194-293 limits assumed): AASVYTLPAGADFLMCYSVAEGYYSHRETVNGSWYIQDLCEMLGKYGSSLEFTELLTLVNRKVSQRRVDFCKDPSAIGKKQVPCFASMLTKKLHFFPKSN

caspase 6 [3] = target: T1, caspase 6; assay type: biochemical
caspase 4 [4] = target: T2, caspase 4 (Homo sapiens, UniProt P49662); assay type: biochemical
T2 sequence (P49662 81-270 limits assumed): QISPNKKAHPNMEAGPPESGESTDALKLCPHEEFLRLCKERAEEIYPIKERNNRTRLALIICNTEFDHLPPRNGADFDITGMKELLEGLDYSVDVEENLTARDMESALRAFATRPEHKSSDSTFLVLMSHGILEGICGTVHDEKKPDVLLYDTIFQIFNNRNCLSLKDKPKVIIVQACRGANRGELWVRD
T2 sequence (P49662 290-377 limits assumed): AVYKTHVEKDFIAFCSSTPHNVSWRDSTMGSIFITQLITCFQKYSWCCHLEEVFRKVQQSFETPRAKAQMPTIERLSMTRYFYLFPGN

caspase 4 [5] = target: T2, caspase 4; experiment: biochemical
caspase 2 [6] = target: T3, caspase 2 (Homo sapiens, UniProt P42575); experiment: biochemical
T3 sequence (P42575 170-325 limits assumed): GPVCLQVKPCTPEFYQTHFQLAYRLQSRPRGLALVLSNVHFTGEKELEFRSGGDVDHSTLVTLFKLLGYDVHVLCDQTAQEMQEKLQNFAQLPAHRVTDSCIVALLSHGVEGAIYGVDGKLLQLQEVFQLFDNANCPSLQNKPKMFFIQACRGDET
T3 sequence (P42575 348-452 limits assumed): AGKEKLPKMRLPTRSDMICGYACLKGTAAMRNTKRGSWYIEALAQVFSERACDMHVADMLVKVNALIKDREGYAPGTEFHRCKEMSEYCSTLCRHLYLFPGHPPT

caspase 2 [7] = target: T3, caspase 2; assay type: biochemical
SARS-CoV S protein [8] = assay type: cell-based
ASLV-A Env = assay type: cell-based
SARS-CoV (strain Tor2) = assay type: cell-based
[9] = IC50 against the three caspases (range stated for all)

Sequence of human cathepsin L (P07711 114-333): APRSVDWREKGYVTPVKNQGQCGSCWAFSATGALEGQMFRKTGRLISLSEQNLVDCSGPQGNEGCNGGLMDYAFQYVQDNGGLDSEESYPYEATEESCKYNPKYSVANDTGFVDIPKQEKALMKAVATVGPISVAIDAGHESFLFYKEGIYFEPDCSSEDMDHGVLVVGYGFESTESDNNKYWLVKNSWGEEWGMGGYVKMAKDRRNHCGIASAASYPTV

With `CCCNC(=O)[C@H]1O[C@@H]1C(=O)N[C@H](C(=O)N1CCC[C@H]1C(=O)O)[C@@H](C)CC` [CA-074] the “effect on infection of HIV-luc(SARS S)” value (SARS-CoV S protein [1]) was “did not dramatically affect infection” and the “effect on infection of HIV-luc(VSV-G)” value (VSV-G) was “did not dramatically affect infection”.
With `CC(C)[C@H](NC(=O)OCc1ccccc1)C(=O)N[C@H](C=O)Cc1ccccc1` [MDL 28170, Z-Val-Phe-CHO] (Cbz-Val-Phe-aldehyde) the “effect on MLV pseudotype entry” value (MLV-Amphotropic Env) was “not inhibited”, the “hit in cathepsin L microarray screen” value (human cathepsin L) was “inhibitors and hits” and the “effect on SARS CoV S pseudotype entry/infection” value (SARS-CoV S protein [1]) was “inhibits entry; also recorded: potently and specifically inhibits pseudotype infection”. The IC50 (SARS-CoV S protein [1]; read-out: IC50, pseudotype virion entry into cells) was about 0.1 µM, the “effect on EboV GP pseudotype entry/infection” value (EboV GP glycoprotein) was “inhibits entry; also recorded: potently and specifically inhibits pseudotype infection” and the “effect on VSV pseudotype entry” value (VSV-G) was “not inhibited”.
For `CC(C)C[C@H](NC(=O)[C@H](CC(C)C)NC(=O)[C@H](CC(C)C)NC(=O)OCc1ccccc1)C(=O)CF` [Z-LLL-FMK, Z-leu-leu-leu-fluoromethyl ketone] (Cbz-Leu-Leu-Leu-CH2F), the “effect on infection of HIV-luc(SARS S)” value (SARS-CoV S protein [1]) was “efficiently inhibited infection” and the “effect on infection of HIV-luc(VSV-G)” value (VSV-G) was “but not HIV-luc(VSV-G)”.
With `Cl.N` [ammonium chloride] the “effect on infection mediated by S protein” value (SARS-CoV S protein [1]) was “dramatically reduced infection” and the “effect on infection mediated by VSV-G” value (VSV-G) was “dramatically reduced infection”.
In the case of `N=C(N)c1ccccc1` [benzamidine], the Ki (thrombin) is listed as 300 to 1000 µM.
`CC1=NN(c2ccccc2)C(=O)C1=NNc1c(Br)cc(Br)cc1Br` [compound 1, 5-methyl-2-phenyl-4-[(2,4,6-tribromo-phenyl)-hydrazono]-2,4-dihydro-pyrazol-3-one] showed an inhibition (caspase 6 [2]) of 100%, an IC50 (caspase 6 [2]; IC50 against caspase 6) of about 5000 µM and an IC50 (caspase 6 [2]; [9]) of 500 to 5000 µM. For the same molecule, the “substrate conversion in microarray screen” value (“substrate conversion” for short) (caspase 6 [3]) was “low substrate conversion”, the “substrate conversion” value (caspase 4 [4]) was “reduced substrate conversion” and the inhibition (caspase 4 [5]) was 100%. For the same molecule, the IC50 (caspase 4 [5]; IC50 against caspase 4) was about 500 µM, the IC50 (caspase 4 [5]; [9]) was 500 to 5000 µM and the inhibition (caspase 2 [6]) was 100%. For the same molecule, the IC50 (caspase 2 [6]; IC50 against caspase 2) was about 5000 µM, the IC50 (caspase 2 [6]; [9]) was 500 to 5000 µM and the “substrate conversion” value (caspase 2 [7]) was “reduced substrate conversion”.
For `CC(=O)N[C@@H](CC(C)C)C(=O)N[C@@H](CC(C)C)C(=O)N[C@H](C=O)CCCNC(=N)N` [leupeptin], the “effect on S protein-mediated intervirion fusion (luciferase activity)” value (SARS-CoV S protein [8]) was “S protein-mediated fusion was lost”, the “effect on ASLV-A Env mediated infection” value (ASLV-A Env) was “no effect” and the “effect on infection mediated by MLV-Amphotropic Env” value (MLV-Amphotropic Env) was “not inhibited”. The “hit in cathepsin L microarray screen” value (human cathepsin L) was “inhibitors and hits”, the “concentration necessary to achieve 95% inhibition of S protein-mediated entry” value (SARS-CoV S protein [1]) was 100 µg/mL and the inhibition at 10 µg/mL (SARS-CoV S protein [1]; Severe acute respiratory syndrome coronavirus, HEK-293T, 10 μg/ml, read-out: inhibition of entry mediated by SARS-CoV S protein) was over 95%. The “effect on SARS-CoV replication” value (SARS-CoV (strain Tor2)) was “little or no effect”, the “effect on infection by replication-competent SARS-CoV” value (SARS-CoV (strain Tor2)) was “inhibited” and the “effect on infection mediated by VSV-G” value (VSV-G) was “not inhibited”.
In the case of `CC(C)CC(=O)N[C@H](C(=O)N[C@H](C(=O)N[C@@H](CC(C)C)[C@@H](O)CC(=O)N[C@@H](C)C(=O)N[C@@H](CC(C)C)[C@@H](O)CC(=O)O)C(C)C)C(C)C` [pepstatin] (Isovaleryl-VV[Sta]A[Sta]-OH), the “effect on infection by pseudotypes bearing S protein” value (SARS-CoV S protein [1]) is reported as “had no effect” and the “effect on VSV-G mediated infection” value (VSV-G) is reported as “had no effect”.
With aprotinin the “effect on infection by pseudotypes bearing S protein” value (SARS-CoV S protein [1]) was “had no effect”.
